In one experiment the target is T1, AII receptor (Bos taurus, UniProt P25104).
T1 construct: Tissue of bovine adrenal cortex was finely cut and suspended; from tissue; host or cells: bovine adrenal cortex membrane fraction
T1 sequence (P25104 1-359): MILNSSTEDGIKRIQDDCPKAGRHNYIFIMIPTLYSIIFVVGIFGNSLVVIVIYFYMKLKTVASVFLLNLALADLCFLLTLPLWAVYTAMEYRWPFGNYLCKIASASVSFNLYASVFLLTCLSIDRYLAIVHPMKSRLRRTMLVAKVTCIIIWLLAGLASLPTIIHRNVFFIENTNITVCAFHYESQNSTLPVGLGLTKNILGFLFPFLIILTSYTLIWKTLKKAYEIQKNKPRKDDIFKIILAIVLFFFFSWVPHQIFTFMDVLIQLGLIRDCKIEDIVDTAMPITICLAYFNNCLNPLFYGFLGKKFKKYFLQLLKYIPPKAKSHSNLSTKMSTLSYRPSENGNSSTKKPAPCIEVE
The experiment is described as follows: Receptor binding test using bovine adrenal cortex ([125I]AII binding). The note with it: test compound 0.1 µM; receptor binding of [125I]AII (2.5 × 10^-10M); bovine adrenal cortex membranes; room temperature, 2 hours; 0.1 µM. Here is the method: Receptor binding test using bovine adrenal cortex
Tissue of bovine adrenal cortex was finely cut and suspended in a 0.25M sucrose solution containing NaHCO3, ethylenediaminetetraacetic acid (EDTA), leupepsin, pepstatin A and phenylmethanesulfonyl fluoride, followed by homogenization. The homogenate was centrifuged at 3,000 rpm for 10 minutes and the supernatant was centrifuged at 9,000 rpm. Then, the supernatant was further centrifuged at 30,000 rpm for 60 minutes and the precipitate was suspended in NaHCO3-EDTA solution, followed by centrifugation at 30,000 rpm for 60 minutes. The resulting precipitate was suspended in a phosphate buffer and the suspension was used for the binding test as an AII receptor source.
To a test compound or a solvent were added 250 µl of the AII receptor solution prepared above, 250 µl of Tris 50 mM buffer containing 0.2% bovine serum albumin (BSA), and 20 µl of [^125I]AII (2.5 × 10^-10M). The mixture was allowed to stand at room temperature for 2 hours and then filtered through a glass fiber filter (GF/B Wattman). The filter was placed in a test tube and the radioactivity was measured using a gamma-counter.
The inhibitory activity (inhibition rate) of the test compound (0.1 µM) against the receptor binding of [^125I]AII was calculated by the following equation. Inhibition Rate (%) =(1-((Binding Amount in the Presence of a Test Compound)-(Nonspecific Binding Amount))/((Total Binding Amount)-(Nonspecific Binding Amount)))× 100 [formula]
The binding amount in the presence of a test compound is the amount of radioactivity of [^125I]AII bound in the presence of a test compound (0.1 µM).
The total binding amount is the amount of radioactivity of [^125I]AII bound in the absence of a test compound.
The nonspecific binding amount is the amount of radioactivity of [^125I]AII bound in the presence of 1 µM AII.
Take `CCc1nc2c(C)cc(C)nc2n1Cc1ccc2c(c1)OCc1ccccc1C2=Cc1nnn[nH]1` [Compound 6-E, 3-(5,7-Dimethyl-2-ethyl-3H-imidazo[4,5-b]pyridin-3-yl)methyl-11-(1H-tetrazol-5-yl)methylene-6,11-dihydrodibenz[b,e]oxepine]: the “Inhibition Rate (%)” value is on record as 87%.

As for `CCc1nc2c(C)cc(C)nc2n1Cc1ccc2c(c1)CCc1ccccc1C2=Cc1nnn[nH]1` (single isomer, unassigned) [Compound 20B, 2-(5,7-Dimethyl-2-ethyl-3H-imidazo[4,5-b]pyridin-3-yl)methyl-5-(1H-tetrazol-5-yl)methylene-5H-10,11-dihydrodibenzo[a,d]cycloheptene], the “Inhibition Rate (%)” value stood at 88%.

The same experiment, now with this note: test compound 0.1 µM; receptor binding of [125I]AII (2.5 × 10^-10M); bovine adrenal cortex membranes; room temperature, 2 hours; listed as 6-Z*, 0.1 µM.
As to `CCc1nc2c(C)cc(C)nc2n1Cc1ccc2c(c1)OCc1ccccc1C2=Cc1nnn[nH]1` [Compound 6-Z, 3-(5,7-Dimethyl-2-ethyl-3H-imidazo[4,5-b]pyridin-3-yl)methyl-11-(1H-tetrazol-5-yl)methylene-6,11-dihydrodibenz[b,e]oxepine], the “Inhibition Rate (%)” value was 66%.

The same experiment, now with this note: test compound 0.1 µM; receptor binding of [125I]AII (2.5 × 10^-10M); bovine adrenal cortex membranes; room temperature, 2 hours; read-out: Inhibition Rate (%).
Regarding `CCc1nc2c(C)cc(C)nc2n1Cc1ccc2c(c1)CCc1ccccc1N2Cc1ccccc1C(=O)O` [Compound 38, 2-[[2-(5,7-Dimethyl-2-ethyl-3H-imidazo[4,5-b]pyridin-3-yl)methyl-5H-10,11-dihydrodibenz[b,f]azepin-5-yl]methyl]benzoic acid], the inhibition at 0.1 µM came out at 68%.

For the molecule `CCc1nc2c(C)cc(C)nc2n1Cc1ccc2c(c1)OCc1ccccc1C2=CC(=O)O` [Compound 3, [3-(5,7-Dimethyl-2-ethyl-3H-imidazo[4,5-b]pyridin-3-yl)methyl-6,11-dihydrodibenz[b,e]oxepin-11-yliden]acetic acid], the inhibition at 0.1 µM is 78%.

Regarding `CCc1nc2c(C)cc(C)nc2n1Cc1ccc2c(c1)OCc1ccc(Br)cc1C2=CC(=O)O` [Compound 7, [9-Bromo-3-(5,7-dimethyl-2-ethyl-3H-imidazo[4,5-b]pyridin-3-yl)methyl-6,11-dihydrodibenz[b,e]oxepin-11-yliden]acetic acid], the inhibition at 0.1 µM is 52%.

Take `Cc1cc(C)c2nc(C3CC3)n(Cc3ccc4c(c3)CCc3ccccc3N4Cc3nnn[nH]3)c2n1` [Compound 34, 2-(5,7-Dimethyl-2-cyclopropyl-3H-imidazo[4,5-b]pyridin-3-yl)methyl-5-(1H-tetrazol-5-yl)methyl-5H-10,11-dihydrodibenz[b,f]azepine]: the inhibition at 0.1 µM is 97%.

As for `CCCc1nc2c(C)cccc2n1Cc1ccc2c(c1)OCc1ccccc1C2=CC(=O)O` [Compound 1, [3-(4-Methyl-2-propylbenzimidazol-1-yl)methyl-6,11-dihydrodibenz[b,e]oxepin-11-yliden]acetic acid], the inhibition at 0.1 µM turned out to be 43%.

For `CCc1nc2c(C)cc(C)nc2n1Cc1ccc2c(c1)CCc1ccccc1N2CC(=O)O` [Compound 33, 5-Carboxymethyl-2-(5,7-dimethyl-2-ethyl-3H-imidazo[4,5-b]pyridin-3-yl)methyl-5H-10,11-dihydrodibenz[b,f]azepine], the inhibition at 0.1 µM came to 88%.

As for `CCc1nc2c(C)cc(C)nc2n1Cc1ccc2c(c1)COc1ccccc1C2=Cc1nnn[nH]1` [Compound 18-Z, 8-(5,7-Dimethyl-2-ethyl-3H-imidazo[4,5-b]pyridin-3-yl)methyl-11-(1H-tetrazol-5-yl)methylene-6,11-dihydrodibenz[b,e]oxepine], the inhibition at 0.1 µM amounted to 81%.

Turning to `CCc1nc2c(C)cc(C)nc2n1Cc1ccc2c(c1)C=Cc1ccc(F)cc1C2=CC(=O)O` [Compound 4, [2-(5,7-Dimethyl-2-ethyl-3H-imidazo[4,5-b]pyridin-3-yl)methyl-7-fluoro-5H-dibenzo[a,d]cyclohepten-5-yliden]acetic acid], the inhibition at 0.1 µM amounted to 77%.

For the molecule `CCc1nc2c(C)cc(C)nc2n1Cc1ccc2c(c1)C=Cc1sccc1C2=CC(=O)O` [Compound 12, [7-(5,7-Dimethyl-2-ethyl-3H-imidazo[4,5-b]pyridin-3-yl)methyl-4H-benzo[4,5]cyclohepte[1,2-b]thiophen-4-yliden]acetic acid], the inhibition at 0.1 µM came out at 72%.

Consider `CCCCC(=O)N(Cc1ccc2c(c1)CCc1ccccc1N2Cc1nnn[nH]1)C(C(=O)O)C(C)C` (centres unmarked) [Compound 40, N-[[5-(1H-Tetrazol-5-yl)methyl-5H-10,11-dihydrodibenz[b,f]azepin-2-yl]methyl]-N-valerylvaline], for which the inhibition at 0.1 µM came out at 95%.

`CCc1nc2c(C)cc(C)nc2n1Cc1ccc2c(c1)CCc1ccccc1C2Cc1nnn[nH]1` (centres unmarked) [Compound 28, 2-(5,7-Dimethyl-2-ethyl-3H-imidazo[4,5-b]pyridin-3-yl)methyl-5-(1H-tetrazol-5-yl)methyl-5H-10,11-dihydrodibenzo[a,d]cycloheptene]: the inhibition at 0.1 µM stood at 83%.

As to `CCc1nc2c(C)cc(C)nc2n1Cc1ccc2c(c1)OCc1ccccc1C2Cc1nnn[nH]1` (centres unmarked) [Compound 25, 3-(5,7-Dimethyl-2-ethyl-3H-imidazo[4,5-b]pyridin-3-yl)methyl-11-(1H-tetrazol-5-yl)methyl-6,11-dihydrodibenz[b,e]oxepine], the inhibition at 0.1 µM is 94%.

Take `Cc1cc(C)c2nc(C3CC3)n(Cc3ccc4c(c3)CCc3ccccc3C4Cc3nnn[nH]3)c2n1` (centres unmarked) [Compound 29, 2-(5,7-Dimethyl-2-cyclopropyl-3H-imidazo[4,5-b]pyridin-3-yl)methyl-5-(1H-tetrazol-5-yl)methyl-5H-10,11-dihydrodibenzo[a,d]cycloheptene]: the inhibition at 0.1 µM worked out at 92%.

On to `CCc1nc2c(C)cc(C)nc2n1Cc1ccc2c(c1)c1ccccc1n2CCc1nnn[nH]1` [Compound 42, 3-(5,7-Dimethyl-2-ethyl-3H-imidazo[4,5-b]pyridin-3-yl)methyl-9-[2-(1H-tetrazol-5-yl)ethyl]carbazole], for which the inhibition at 0.1 µM was found to be 85%.

As to `CCc1nc2c(C)cc(C)nc2n1Cc1ccc2c(c1)CCc1ccccc1C2=Cc1nnn[nH]1` (single isomer, unassigned) [Compound 20A, 2-(5,7-Dimethyl-2-ethyl-3H-imidazo[4,5-b]pyridin-3-yl)methyl-5-(1H-tetrazol-5-yl)methylene-5H-10,11-dihydrodibenzo[a,d]cycloheptene], the inhibition at 0.1 µM was found to be 70%.

For `CCc1nc2c(C)cc(C)nc2n1Cc1ccc2c(c1)C=Cc1c(Br)cccc1C2=Cc1nnn[nH]1` [Compound 19, 1-Bromo-8-(5,7-dimethyl-2-ethyl-3H-imidazo[4,5-b]pyridin-3-yl)methyl-5-(1H-tetrazol-5-yl)methylene-5H-dibenzo[a,d]cycloheptene], the inhibition at 0.1 µM was found to be 14%.

Regarding `CCc1nc2c(C)cc(C)nc2n1Cc1ccc2c(c1)OCc1ccsc1C2=CC(=O)O` [Compound 11, [7-(5,7-Dimethyl-2-ethyl-3H-imidazo[4,5-b]pyridin-3-yl)methyl-4,10-dihydrothieno[3,2-c][1]benzoxepin-10-yliden]acetic acid], the inhibition at 0.1 µM was 84%.

Turning to `CCc1nc2c(C)cc(C)nc2n1Cc1ccc2c(c1)SCc1ccccc1C2=Cc1nnn[nH]1` [Compound 22-E, 3-(5,7-Dimethyl-2-ethyl-3H-imidazo[4,5-b]pyridin-3-yl)methyl-11-(1H-tetrazol-5-yl)methylene-6,11-dihydrodibenzo[b,e]thiepine], the inhibition at 0.1 µM amounted to 80%.

In the case of `CCc1nc2c(C)cc(C)nc2n1Cc1ccc2c(c1)CCc1ccccc1C2=CC(=O)O` [Compound 16, [2-(5,7-Dimethyl-2-ethyl-3H-imidazo[4,5-b]pyridin-3-yl)methyl-5H-10,11-dihydrodibenzo[a,d]cyclohepten-5-yliden]acetic acid], the inhibition at 0.1 µM came to 91%.

For the molecule `CCc1nc2c(C)cc(C)nc2n1Cc1ccc2c(c1)OCc1ccccc1C2CC(=O)O` (centres unmarked) [Compound 23, [3-(5,7-Dimethyl-2-ethyl-3H-imidazo[4,5-b]pyridin-3-yl)methyl-6,11-dihydrodibenz[b,e]oxepin-11-yl]acetic acid], the inhibition at 0.1 µM was 61%.

Values taken from patent publication EP0549352B1, “Tricyclic compounds as angiotensin II antagonists” (KYOWA HAKKO KOGYO CO., LTD., priority 1991, dated 1993).
